This note sets out measurements from ChEMBL document CHEMBL5260810, “Inhibition of bromodomain-containing protein 9 for the prevention of epigenetically-defined drug resistance” (Bioorg Med Chem Lett, 2017).

Calls of active or inactive are those of the source. No cut-off for these calls is given here.

One assay deals with A-375. The experiment in a line: Antiproliferative activity against human A-375 cells assessed as reduction in colony formation up to 20 uM supplemented with fresh medium containing compound every 3 days for 9 days by MTT staining based clonogenic assay. It is filed as functional, cell-based. As to conditions: time 9.0 day.
For the next assay, the system named is DU-4475. Nature of the assay: Cytotoxicity against human DU-4475 cells after 8 days. It is filed as functional, cell-based. As to conditions: DU-4475, 192 h.
In the next assay the test system is SU-DHL-5. The experiment in a line: Cytotoxicity against human SU-DHL-5 cells measured after 3 days. As to conditions: SU-DHL-5, 72 h. Format: functional, cell-based.
The next assay concerns HCC1395. The experiment in a line: Cytotoxicity against human HCC1395 cells measured after 8 days. It is filed as functional, cell-based. To be noted: HCC1395, 192 h.
The test system of another assay is SU-DHL-8. The experiment in a line: Cytotoxicity against human SU-DHL-8 cells measured after 3 days. Format: functional, cell-based. To be noted: SU-DHL-8, 72 h.
A further assay concerns RPMI-8226. The experiment in a line: Cytotoxicity against human RPMI-8226 cells measured after 3 days. It is filed as functional, cell-based. As to conditions: RPMI-8226, 72 h.
Assay [1] can be described thus: Cytotoxicity against human TYK-nu.CP-r cells measured after 3 days. It is filed as functional, cell-based. To be noted: 72 h.
Assay [2] can be described thus: Cytotoxicity against human HCC1623 cells measured after 3 days. It is filed as functional, cell-based. As to conditions: HCC1623, 72 h.
A further assay has as its system HCC1187. The experiment in a line: Cytotoxicity against human HCC1187 cells measured after 3 days. Format: functional, cell-based. As to conditions: HCC1187, 72 h.
The subject of a further assay is KG-1. Nature of the assay: Cytotoxicity against human KG-1 cells measured after 3 days. It is filed as functional, cell-based. As to conditions: KG-1, 72 h.
Assay [3] can be described thus: Cytotoxicity against human OVCAR433 cells measured after 3 days. It is filed as functional, cell-based. To be noted: OVCAR433, 72 h.
Assay [4] is described as follows: Cytotoxicity against human COV413B cells measured after 3 days. It is filed as functional, cell-based. To be noted: 72 h.
Assay [5] can be described thus: Cytotoxicity against human PMF-ko14 cells measured after 3 days. It is filed as functional, cell-based. To be noted: PMF-ko14, 72 h.
A short description of assay [6]: Cytotoxicity against human NCE-G 121 cells measured after 3 days. It is filed as functional, cell-based. As to conditions: NCE-G 121, 72 h.
Assay [7] can be described thus: Cytotoxicity against human JHH-4 cells measured after 3 days. It is filed as functional, cell-based. To be noted: JHH-4, 72 h.
A further assay relates to NCI-H1944. Nature of the assay: Cytotoxicity against human NCI-H1944 cells measured after 3 days. Format: functional, cell-based. To be noted: NCI-H1944, 72 h.
A short description of assay [8]: Cytotoxicity against human EFM-192C cells measured after 3 days. It is filed as functional, cell-based. To be noted: 72 h.
In the next assay the test system is NCI-H2170. The experiment in a line: Cytotoxicity against human NCI-H2170 cells measured after 3 days. It is filed as functional, cell-based. As to conditions: NCI-H2170, 72 h.
For another assay, the system named is JIYOYE. Nature of the assay: Cytotoxicity against human JIYOYE cells measured after 3 days. Format: functional, cell-based. To be noted: 72 h.
Another assay deals with PC-9. The experiment in a line: Antiproliferative activity against human PC-9 cells assessed as reduction in colony formation at 1 uM supplemented with fresh medium containing compound every 3 days by MTT staining based assay. It is filed as functional, cell-based. As to conditions: time 9.0 day.
The test system of the next assay is NCI-H929. The experiment in a line: Cytotoxicity against human NCI-H929 cells measured after 3 days. Format: functional, cell-based. To be noted: NCI-H929, 72 h.
A further assay relates to SW982. The experiment in a line: Cytotoxicity against human SW982 cells measured after 3 days. To be noted: SW982, 72 h. It is filed as functional, cell-based.
The next assay deals with T47D. Nature of the assay: Cytotoxicity against human T47D cells measured after 3 days. Format: functional, cell-based. As to conditions: 72 h.
The subject of the next assay is EB2. Nature of the assay: Cytotoxicity against human EB2 cells measured after 3 days. It is filed as functional, cell-based. As to conditions: EB2, 72 h.
Assay [9] concerns the target T1, Bromodomain-containing protein 9 (Homo sapiens) (UniProt Q9H8M2).
T1 sequence (whole entry): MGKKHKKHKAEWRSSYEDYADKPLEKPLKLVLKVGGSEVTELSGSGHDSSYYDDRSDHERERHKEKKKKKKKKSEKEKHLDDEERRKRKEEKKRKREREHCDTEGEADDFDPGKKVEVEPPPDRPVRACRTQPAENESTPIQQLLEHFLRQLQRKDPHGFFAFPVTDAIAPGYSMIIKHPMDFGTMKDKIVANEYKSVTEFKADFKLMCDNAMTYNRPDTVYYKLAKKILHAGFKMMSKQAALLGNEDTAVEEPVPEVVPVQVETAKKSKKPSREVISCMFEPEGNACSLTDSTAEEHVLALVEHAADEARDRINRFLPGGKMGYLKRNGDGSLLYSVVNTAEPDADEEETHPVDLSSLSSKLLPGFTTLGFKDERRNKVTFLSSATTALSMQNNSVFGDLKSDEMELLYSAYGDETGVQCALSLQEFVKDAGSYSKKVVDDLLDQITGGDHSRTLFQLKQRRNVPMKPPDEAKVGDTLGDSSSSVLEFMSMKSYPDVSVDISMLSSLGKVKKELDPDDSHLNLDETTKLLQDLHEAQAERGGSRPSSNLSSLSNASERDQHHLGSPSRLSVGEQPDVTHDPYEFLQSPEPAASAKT
The experiment in a line: Binding affinity to BRD9 in human PC-9 cell lysate assessed as increase in thermal stabilization at 2 uM at 44 to 50 degreeC measured after 30 mins by CETSA. Format: subcellular.

The test system of another assay is L-363. The experiment in a line: Cytotoxicity against human L-363 cells measured after 3 days. It is filed as functional, cell-based. To be noted: L-363, 72 h.
A short description of assay [10]: Cytotoxicity against human NCE-G 140 cells measured after 3 days. Format: functional, cell-based. As to conditions: NCE-G 140, 72 h.
The next assay relates to NCI-H2030. The experiment in a line: Cytotoxicity against human NCI-H2030 cells measured after 8 days. It is filed as functional, cell-based. To be noted: NCI-H2030, 192 h.
Another assay deals with OVCAR-4. Nature of the assay: Cytotoxicity against human OVCAR-4 cells measured after 3 days. It is filed as functional, cell-based. To be noted: OVCAR-4, 72 h.
The test system of another assay is OCI-AML-5. The experiment in a line: Cytotoxicity against human OCI-AML5 cells measured after 3 days. It is filed as functional, cell-based. To be noted: OCI-AML-5, 72 h.
Another assay has as its system OAW-42. Nature of the assay: Cytotoxicity against human OAW-42 cells measured after 3 days. It is filed as functional, cell-based. To be noted: OAW-42, 72 h.
A further assay has as its system NCI-H2444. The experiment in a line: Cytotoxicity against human NCI-H2444 cells measured after 3 days. It is filed as functional, cell-based. To be noted: NCI-H2444, 72 h.
Another assay has as its system DOV13. The experiment in a line: Cytotoxicity against human DOV13 cells measured after 3 days. To be noted: DOV13, 72 h. Format: functional, cell-based.
Assay [11] is described as follows: Cytotoxicity against human NCE-G 141 cells measured after 3 days. It is filed as functional, cell-based. As to conditions: NCE-G 141, 72 h.
A further assay relates to AU565. Nature of the assay: Cytotoxicity against human AU565 cells measured after 3 days. As to conditions: AU565, 72 h. It is filed as functional, cell-based.
Assay [12] can be described thus: Cytotoxicity against human EFM-192C cells measured after 8 days. As to conditions: 192 h. Format: functional, cell-based.
For another assay, the system named is EJM. The experiment in a line: Cytotoxicity against human EJM cells measured after 3 days. Format: functional, cell-based. As to conditions: 72 h.
The test system of the next assay is HCC70. The experiment in a line: Cytotoxicity against human HCC70 cells measured after 3 days. To be noted: HCC70, 72 h. It is filed as functional, cell-based.
The test system of the next assay is SUM149PT. Nature of the assay: Cytotoxicity against human SUM149PT cells measured after 3 days. Format: functional, cell-based. To be noted: 72 h.
In a further assay the test system is SU-DHL10. The experiment in a line: Cytotoxicity against human SU-DHL-10 cells measured after 3 days. Format: functional, cell-based. As to conditions: SU-DHL10, 72 h.
A short description of assay [13]: Cytotoxicity against human HCC1428 cells measured after 3 days. It is filed as functional, cell-based. To be noted: HCC1428, 72 h.
The next assay relates to Huh-7. Nature of the assay: Cytotoxicity against human Huh-7 cells measured after 3 days. Format: functional, cell-based. To be noted: Huh-7, 72 h.
The test system of the next assay is NCI-H520. The experiment in a line: Cytotoxicity against human NCI-H520 cells measured after 3 days. To be noted: NCI-H520, 72 h. It is filed as functional, cell-based.
The test system of the next assay is BT-20. The experiment in a line: Cytotoxicity against human BT-20 cells measured after 3 days. As to conditions: BT-20, 72 h. It is filed as functional, cell-based.
The subject of a further assay is NCI-H1573. Nature of the assay: Cytotoxicity against human NCI-H1573 cells after 8 days. To be noted: NCI-H1573, 192 h. Format: functional, cell-based.
The next assay deals with BJAB. Nature of the assay: Cytotoxicity against human BJAB cells measured after 3 days. It is filed as functional, cell-based. To be noted: 72 h.

In the case of `C/C=C/Cn1cc(-c2ccc(C(C)(C)O)cc2OC)c2cc[nH]c2c1=O`, the result in the assay with A-375 was inactive.
Take `C/C=C/Cn1cc(-c2cc(OC)c(C(=O)N3CCOCC3)cc2OC)c2cc(C)[nH]c2c1=O`: the IC50 with DU-4475 was 2 µM; in the assay on SU-DHL-5, 5 µM; with HCC1395 it was 2 µM; with SU-DHL-8, 5 µM; with RPMI-8226 it was 5 µM; in assay [1], 5 µM. Also, the IC50 (in assay [2]; in the assay on HCC1187; in the assay on KG-1; in [3]; in assay [4]; in assay [5]) was 5 µM throughout. The IC50 (in assay [6]; in assay [7]; with NCI-H1944; in assay [8]; in the assay on NCI-H2170; in the assay with JIYOYE) was 5 µM throughout. Besides, the IC50 (with NCI-H929; with SW982; in the assay on T47D; in the assay on EB2; in the assay with L-363; in assay [10]) was 5 µM throughout. Besides, the IC50 with NCI-H2030 is 2 µM; with OVCAR-4, 5 µM; with OCI-AML-5, 5 µM; in the assay with OAW-42, 5 µM; in the assay with NCI-H2444, 5 µM; in the assay with DOV13 it was 5 µM. For the same compound, the IC50 in [11] worked out at 5 µM; in the assay on AU565 it was 5 µM; in [12] it was 2 µM; in the assay on EJM, 5 µM; in the assay with HCC70, 5 µM; in the assay on SUM149PT, 5 µM. For the same compound, the IC50 in the assay on SU-DHL10 was determined as 5 µM; in assay [13], 5 µM; with Huh-7, 5 µM; in the assay on NCI-H520, 5 µM; with BT-20, 5 µM; in the assay on NCI-H1573 it was 2 µM. In addition, the IC50 in the assay with BJAB turned out to be 5 µM. Besides, in the assay with PC-9, the result was inactive. Besides, in assay [9], the outcome was Active.

A word on the IC50: it is the concentration needed to halve the response being measured. Read a low IC50 as greater potency in that assay.
